# Experimental data: patent US10626126B2, “Compounds” (Pulmocide Limited, priority 2016, dated 2020)
# Key:
# Type in all cases: cell-based
# RSV A2 strain = experiment: RSV A2 induced CPE in HEp2 cells; settings: human respiratory syncytial virus; for IC50: HEp-2, 120 h, 5 days; for inhibition at 0.01 µg/mL: HEp-2, at 0.01 μg/mL
# Experimental: (§1) HEp2 cells were seeded (10^3/well/50 μL) in 384-well plates (Catalogue number 353962, BD Falcon, Oxford, UK) in 5% FBS-DMEM (containing 2 mM L-glutamine and 1 mM sodium pyruvate) one day before infection. […] Simultaneously, test compounds (0.5 μL DMSO solution) were added to 100 μL of HEp2 cell culture with virus solution to provide a final DMSO solution of 0.5%. […] Sigma-Aldrich, Dorset, UK) was added to each well and the plate incubated for a further 6 hr (37° C./5% CO2). The fluorescence of each well [545 nm (excitation)/590 nm (emission)] was determined using a multi-scanner (Clariostar: BMG, Buckinghamshire, UK). The percentage inhibition for each well was calculated and the IC50, IC75 and IC90 values were calculated from the concentration-response curve generated for each test compound.
# RSV B Washington strain = experiment: RSV B induced CPE in HEp2 cells; settings: human respiratory syncytial virus; for IC50: HEp-2, 144 h, 6 days; for inhibition at 0.1 µg/mL: HEp-2, at 0.1 μg/mL; for inhibition at 1 µg/mL: HEp-2, at 1 μg/mL
# Experimental: as §1
# [1] = Cell viability: resazurin assay; settings: human, HEp2 cells
# Experimental: HEp2 cells were seeded in 384-well plates (10^3/well/50 μL; BD Falcon Ref 353962) in FBS DMEM (5%, containing 2 mM L-glutamine and 1 mM sodium pyruvate) one day before experimentation. Serum-free DMEM (50 μL) was added to test wells, while for control wells the media was removed and sterile water (100 μL) added. Test compounds (0.5 μL DMSO solution) were added to give a final DMSO concentration of 0.5%. HEp2 cells were incubated with each test compound for 5 days (37° C./5% CO2 in 2.5% FBS) and then resazurin stock solution (5 μL; 0.03%) was added to each well and the plate incubated for a further 6 hr (37° C./5% CO2). The fluorescence of each well at 545 nm (excitation) and 590 nm (emission) was determined using a multi-scanner (Clariostar: BMG Labtech). The percentage loss of cell viability was calculated for each well relative to vehicle (0.5% DMSO) treatment. Note that any apparent increase in cell viability associated with test compound treatment relative to vehicle is consequently tabulated as a negative percentage. Where appropriate, a CC50 value was calculated from the concentration-response curve generated from the concentration-response curve for each test compound.
SMILES,IC50 (RSV A2 strain),inhibition at 0.01 µg/mL (RSV A2 strain),IC50 (RSV B Washington strain),inhibition at 0.1 µg/mL (RSV B Washington strain),CC50 at 5 days [1],inhibition at 1 µg/mL (RSV B Washington strain)
"Cc1cccc(F)c1NC(=O)c1cc2c(s1)-c1sccc1N(C(=O)c1ccc(NC(=O)c3cc4c(nc3N3CC5(CCOCC5)C3)CCC4)cc1)CC2 [Example 24, 4-(4-(2-(7-oxa-2-azaspiro[3.5]nonan-2-yl)-6,7-dihydro-5H-cyclopenta[b]pyridine-3-carboxamido)benzoyl)-N-(2-fluoro-6-methylphenyl)-5,6-dihydro-4H-dithieno[3,2-b:2′,3′-d] azepine-8-carboxamide]",0.54 nM,98%,11 nM,84%,> 13400 nM,
"Cc1cnc(N2CC3(CCOCC3)C2)c(C(=O)Nc2ccc(C(=O)N3CCc4cc(C(=O)Nc5c(C)cccc5F)sc4-c4sccc43)cc2)c1 [Example 11, N-(2-fluoro-6-methylphenyl)-4-(4-(5-methyl-2-(7-oxa-2-azaspiro[3.5]nonan-2-yl)nicotinamido)benzoyl)-5,6-dihydro-4H-dithieno[3,2-b:2′,3′-d]azepine-8-carboxamide]",0.21 nM,100%,8.3 nM,100%,> 13900 nM,
"Cc1ccc(C(=O)Nc2ccc(C(=O)N3CCc4cc(C(=O)Nc5c(F)cccc5F)sc4-c4sccc43)cc2)c(N2CC3(CCOCC3)C2)n1 [Example 21, N-(2,6-difluorophenyl)-4-(4-(6-methyl-2-(7-oxa-2-azaspiro [3.5]nonan-2-yl)nicotinamido)benzoyl)-5,6-dihydro-4H-dithieno[3,2-b:2′,3′-d]azepine-8-carboxamide]",0.37 nM,91%,17 nM,91%,> 13800 nM,
"[2H]c1c([2H])c(C(=O)N2CCc3cc(C(=O)Nc4c(F)cccc4F)sc3-c3sccc32)c([2H])c([2H])c1NC(=O)c1cc(C)cnc1N1CC2(CCOCC2)C1 [Example 3, N-(2,6-difluorophenyl)-4-(4-(5-methyl-2-(7-oxa-2-azaspiro[3.5]nonan-2-yl)nicotinamido)benz-y-2,3,5,6-d4)-5,6-dihydro-4H-dithieno[3,2-b:2′,3′-d]azepine-8-carboxamide]",0.15 nM,95%,14 nM,100%,> 13700 nM,
"COc1cnc(N2CC3(CCOCC3)C2)c(C(=O)Nc2ccc(C(=O)N3CCc4cc(C(=O)Nc5c(F)cccc5F)sc4-c4sccc43)cc2)c1 [Example 20, N-(2,6-difluorophenyl)-4-(4-(5-methoxy-2-(7-oxa-2-azaspiro[3.5]nonan-2-yl)nicotinamido)benzoyl)-5,6-dihydro-4H-dithieno[3,2-b:2′,3′-d]azepine-8-carboxamide]",0.17 nM,100%,18 nM,100%,> 13500 nM,
"Cc1cnc(N2CC3(CCOCC3)C2)c(C(=O)Nc2ccc(C(=O)N3CCc4cc(C(=O)Nc5c(F)cc(F)cc5F)sc4-c4sccc43)cc2)c1 [Example 17, 4-(4-(5-methyl-2-(7-oxa-2-azaspiro[3.5]nonan-2-yl)nicotinamido)benzoyl)-N-(2,4,6-trifluorophenyl)-5,6-dihydro-4H-dithieno[3,2-b:2′,3′-d]azepine-8-carboxamide]",0.17 nM,92%,19 nM,100%,> 13400 nM,
"Cc1cnc(N2CC3(CCOCC3)C2)c(C(=O)Nc2ccc(C(=O)N3CCc4cc(C(=O)Nc5c(O)cccc5F)sc4-c4sccc43)cc2)c1 [Example 15, N-(2-fluoro-6-hydroxyphenyl)-4-(4-(5-methyl-2-(7-oxa-2-azaspiro[3.5]nonan-2-yl)nicotinamido)benzoyl)-5,6-dihydro-4H-dithieno[3,2-b:2′,3′-d]azepine-8-carboxamide]",0.3 nM,100%,86 nM,,> 13800 nM,90%
"Cc1cnc(N2CC3(CCOCC3)C2)c(C(=O)Nc2ccc(C(=O)N3CCc4cc(C(=O)Nc5ccccc5)sc4-c4sccc43)cc2)c1 [Example 8, 4-(4-(5-methyl-2-(7-oxa-2-azaspiro[3.5]nonan-2-yl)nicotinamido)benzoyl)-N-phenyl-5,6-dihydro-4H-dithieno [3,2-b:2′,3′-d]azepine-8-carboxamide]",0.68 nM,100%,137 nM,,> 14500 nM,97%
"O=C(Nc1c(F)cccc1F)c1cc2c(s1)-c1sccc1N(C(=O)c1ccc(NC(=O)c3cccnc3N3CC4(CCOCC4)C3)cc1)CC2 [Example 6, 4-(4-(2-(7-oxa-2-azaspiro[3.5]nonan-2-yl)nicotin-amido)benzoyl)-N-(2,6-difluorophenyl)-5,6-dihydro-4H-dithieno[3,2-b:2′,3′-d]azepine-8-carboxamide]",0.44 nM,93%,63 nM,,> 14000 nM,95%
"Cc1cccc(F)c1NC(=O)c1cc2c(s1)-c1sccc1N(C(=O)c1ccc(NC(=O)c3cc4c(nc3N3CC5(CCOCC5)C3)CCOC4)cc1)CC2 [Example 26, N-(4-(8-((2-fluoro-6-methylphenyl)carbamoyl)-5,6-dihydro-4H-dithieno[3,2-b:2′,3′-d]azepine-4-carbonyl)phenyl)-2-(7-oxa-2-azaspiro[3.5]nonan-2-yl)-7,8-dihydro-5H-pyrano[4,3-b]pyridine-3-carboxamide]",1 nM,98%,17 nM,93%,> 13100 nM,
"Cc1cnc(N2CC3(CCOCC3)C2)c(C(=O)Nc2ccc(C(=O)N3CCc4cc(C(=O)Nc5ccccc5F)sc4-c4sccc43)cc2)c1 [Example 9, N-(2-fluorophenyl)-4-(4-(5-methyl-2-(7-oxa-2-azaspiro[3.5]nonan-2-yl)nicotinamido)benzoyl)-5,6-dihydro-4H-dithieno[3,2-b:2′,3′-d]azepine-8-carboxamide]",0.18 nM,100%,54 nM,100%,> 14100 nM,
"Cc1cnc(N2CC3(CCOCC3)C2)c(C(=O)Nc2ccc(C(=O)N3CCc4cc(C(=O)Nc5ccc(F)cc5F)sc4-c4sccc43)cc2)c1 [Example 10, N-(2,4-difluorophenyl)-4-(4-(5-methyl-2-(7-oxa-2-azaspiro[3.5]nonan-2-yl)nicotinamido)benzoyl)-5,6-dihydro-4H-dithieno[3,2-b:2′,3′-d]azepine-8-carboxamide]",0.75 nM,97%,123 nM,,> 13800 nM,100%
"O=C(Nc1c(F)cccc1F)c1cc2c(s1)-c1sccc1N(C(=O)c1ccc(NC(=O)c3cccnc3N3CCC4(CCOCC4)CC3)cc1)CC2 [Example 33, 4-(4-(2-(3-oxa-9-azaspiro[5.5]undecan-9-yl)nicotin amido)benzoyl)-N-(2,6-difluorophenyl)-5,6-dihydro-4H-dithieno[3,2-b:2′,3′-d]azepine-8-carboxamide]",1.4 nM,100%,> 1350 nM,,> 13500 nM,23%
